According to publication PMC7914897, “Cytotoxic Potential of a-Azepano- and 3-Amino-3,4-SeCo-Triterpenoids” (International Journal of Molecular Sciences, 2021):

Columns and labels:
[1] = test system: BT-549 (Breast cancer); test: NCI-60 screen (SRB, 48 h); assay type: cell-based; conditions: Homo sapiens
[2] = test system: COLO 205 (Colon cancer); test: NCI-60 screen (SRB, 48 h); conditions: Homo sapiens
[3] = test system: PC-3 (Prostate cancer); test: NCI-60 screen (SRB, 48 h); conditions: Homo sapiens
[4] = test system: CAKI-1 (Renal cancer); test: NCI-60 screen (SRB, 48 h)
[5] = test system: SF-295 (CNS cancer); test: NCI-60 screen (SRB, 48 h); conditions: Homo sapiens
[6] = test system: Breast cancer subpanel; test: NCI-60 screen, subpanel; conditions: Homo sapiens
[7] = test system: EKVX (NSC lung cancer); test: NCI-60 screen (SRB, 48 h); conditions: Homo sapiens
[8] = test system: NCI-H322M (NSC lung cancer); test: NCI-60 screen (SRB, 48 h); conditions: Homo sapiens
[9] = test system: MOLT-4 (Leukemia); test: NCI-60 screen (SRB, 48 h); conditions: Homo sapiens
[10] = test system: OVCAR-3 (Ovarian cancer); test: cells; conditions: Homo sapiens
[11] = test system: NCI-H460 (NSC lung cancer); test: NCI-60 screen (SRB, 48 h); conditions: Homo sapiens
[12] = test system: NSC lung cancer subpanel; test: NCI-60 screen, subpanel; conditions: Homo sapiens
[13] = test system: IGROV1 (Ovarian cancer); test: NCI-60 screen (SRB, 48 h); conditions: Homo sapiens
[14] = test system: RXF 393 (Renal cancer); test: NCI-60 screen (SRB, 48 h); conditions: Homo sapiens
[15] = test system: SR (Leukemia); test: NCI-60 screen (SRB, 48 h); assay type: cell-based
[16] = test system: Colon Cancer subpanel; test: NCI-60 screen, subpanel; conditions: Homo sapiens
[17] = test system: SK-MEL-5 (Melanoma); test: NCI-60 screen (SRB, 48 h); conditions: Homo sapiens
[18] = test system: Renal Cancer subpanel; test: NCI-60 screen, subpanel; conditions: Homo sapiens
[19] = test system: MCF7 (Breast cancer); test: NCI-60 screen (SRB, 48 h); conditions: Homo sapiens
[20] = test system: KM12 (Colon cancer); test: NCI-60 screen (SRB, 48 h); conditions: Homo sapiens
[21] = test system: SNB-19 (CNS cancer); test: NCI-60 screen (SRB, 48 h); conditions: Homo sapiens
[22] = test system: UO-31 (Renal cancer); test: NCI-60 screen (SRB, 48 h); conditions: Homo sapiens
[23] = test system: Prostate cancer subpanel; test: NCI-60 screen, subpanel; conditions: Homo sapiens
[24] = test system: MDA-MB-468 (Breast cancer); test: cells; conditions: Homo sapiens

In the case of `CC1(C)CC[C@]23CC[C@]4(C)[C@H](CC[C@@H]5[C@@]6(C)CCCNC(C)(C)[C@@H]6CC[C@]54C)[C@H]2[C@H]1OC3` [Compound 7, Azepanoallobetulin], the GI50 ([1]; BT-549) is reported as 1.68 µM, the IC (TGI) ([1]; BT-549, 48 h) is reported as 3.24 µM and the GI50 ([2]; COLO 205) is reported as 1.28 µM. For the same compound, the IC (TGI) ([2]; COLO 205, 48 h, read-out: TGI) was 2.68 µM, the CC50 ([2]; COLO 205, read-out: LC50) was 5.61 µM and the GI50 ([3]; PC-3) was 1.61 µM. The IC (TGI) ([3]; PC-3, 48 h, read-out: TGI) was 3.17 µM, the CC50 ([3]; PC-3, read-out: LC50) was 6.25 µM and the “Growth % of the Most Sensitive Cell Lines” value ([4]; CAKI-1, 1 dose 10 µM) was −92.03%. For the same compound, the GI50 ([4]; Homo sapiens, CAKI-1) was 1.62 µM, the IC (TGI) ([4]; Homo sapiens, CAKI-1, 48 h, read-out: TGI) was 2.97 µM and the CC50 ([4]; Homo sapiens, CAKI-1, read-out: LC50) was 5.45 µM. It also gave a GI50 ([5]; SF-295) of 1.7 µM, an IC (TGI) ([5]; SF-295, 48 h, read-out: TGI) of 3.19 µM and a CC50 ([5]; SF-295, read-out: LC50) of 5.99 µM. For the same compound, the IC (TGI) ([6]; 48 h, read-out: TGI MG_MID) was 3.55 µM, the GI50 ([6]; read-out: GI50 MG_MID) was 1.68 µM and the CC50 ([6]; read-out: LC50 MG_MID) was 6.06 µM. The GI50 [7] was 1.68 µM, the IC (TGI) ([7]; 48 h, read-out: TGI) was 3.37 µM and the CC50 ([7]; read-out: LC50) was 6.77 µM. The GI50 [8] was 1.64 µM, the IC (TGI) ([8]; 48 h, read-out: TGI) was 3.03 µM and the CC50 ([8]; read-out: LC50) was 5.6 µM. It also gave a GI50 ([9]; MOLT-4) of 2.1 µM, an IC (TGI) ([9]; MOLT-4, 48 h, read-out: TGI) of 5.04 µM and a CC50 ([9]; MOLT-4, read-out: LC50) of 74.8 µM. The GI50 ([10]; OVCAR-3) was 1.62 µM, the IC (TGI) ([10]; OVCAR-3, 48 h, read-out: TGI) was 3.1 µM and the CC50 ([10]; OVCAR-3, read-out: LC50) was 5.94 µM. For the same compound, the GI50 ([11]; NCI-H460) was 0.65 µM, the IC (TGI) ([11]; NCI-H460, 48 h, read-out: TGI) was 2.2 µM and the CC50 ([11]; NCI-H460, read-out: LC50) was 6.12 µM. It also gave an IC (TGI) ([12]; 48 h, read-out: TGI MG_MID) of 3.28 µM, a GI50 ([12]; read-out: GI50 MG_MID) of 1.49 µM and a CC50 ([12]; read-out: LC50 MG_MID) of 6.73 µM. For the same compound, the GI50 ([13]; IGROV-1) was 1.79 µM, the IC (TGI) ([13]; IGROV-1, 48 h, read-out: TGI) was 3.48 µM and the CC50 ([13]; IGROV-1, read-out: LC50) was 6.78 µM. For the same compound, the GI50 ([14]; RXF 393) was 1.56 µM, the IC (TGI) ([14]; RXF 393, 48 h, read-out: TGI) was 2.98 µM and the CC50 ([14]; RXF 393, read-out: LC50) was 5.69 µM. The TGI [15] was 4.12 µM, the GI50 ([15]; Homo sapiens) was 1.49 µM and the CC50 ([15]; Homo sapiens, read-out: LC50 (the source's name)) was > 100 µM. It also gave an IC (TGI) ([16]; 48 h, read-out: TGI MG_MID) of 3.11 µM, a GI50 ([16]; read-out: GI50 MG_MID) of 1.58 µM and a CC50 ([16]; read-out: LC50 MG_MID) of 6.11 µM. For the same compound, the GI50 ([17]; SK-MEL-5) was 1.69 µM, the IC (TGI) ([17]; SK-MEL-5, 48 h, read-out: TGI) was 3.06 µM and the CC50 ([17]; SK-MEL-5, read-out: LC50) was 5.53 µM. For the same compound, the IC (TGI) ([18]; 48 h, read-out: TGI MG_MID) was 3.22 µM, the GI50 ([18]; read-out: GI50 MG_MID) was 1.67 µM and the CC50 ([18]; read-out: LC50 MG_MID) was 6.21 µM. For the same compound, the GI50 ([19]; MCF7) was 1.44 µM, the IC (TGI) ([19]; MCF7, 48 h, read-out: TGI) was 3.01 µM and the CC50 ([19]; MCF7, read-out: LC50) was 6.3 µM. The GI50 ([20]; KM12) was 1.86 µM, the IC (TGI) ([20]; KM12, 48 h, read-out: TGI) was 3.44 µM and the GI50 ([21]; SNB-19) was 1.85 µM. For the same compound, the IC (TGI) ([21]; SNB-19, 48 h, read-out: TGI) was 3.35 µM, the CC50 ([21]; SNB-19, read-out: LC50) was 6.07 µM and the GI50 ([22]; UO-31) was 1.56 µM. The IC (TGI) ([22]; UO-31, 48 h, read-out: TGI) was 3 µM, the CC50 ([22]; UO-31, read-out: LC50) was 5.77 µM and the IC (TGI) ([23]; 48 h, read-out: TGI MG_MID) was 3.2 µM. It also gave a GI50 ([23]; read-out: GI50 MG_MID) of 1.67 µM, a CC50 ([23]; read-out: LC50 MG_MID) of 6.12 µM and a GI50 ([24]; MDA-MB-468) of 1.61 µM. The IC (TGI) ([24]; MDA-MB-468, 48 h, read-out: TGI) was 3.45 µM and the CC50 ([24]; MDA-MB-468, read-out: LC50) was 7.39 µM.
